Assays:
Conditions in all cases: scale 0 to 100
galium = test: Test D preemergence; assay type: in vivo, Galium aparine
From the text: (§1) Seeds of plant species selected from bluegrass (annual bluegrass, Poa annua), blackgrass (Alopecurus myosuroides), canarygrass (littleseed canarygrass, Phalaris minor), chickweed (common chickweed, Stellaria media), galium (catchweed bedstraw, Galium aparine), bromegrass, downy (downy bromegrass, Bromus tectorum), field poppy (Papaver rhoeas), field violet (Viola arvensis), foxtail, green (green foxtail, Setaria viridis), deadnettle (henbit deadnettle, Lamium amplexicaule), ryegrass, Italian (Italian ryegrass, Lolium multiflorum), kochia (Kochia scoparia), lambsquarters (Chenopodium album), oilseed rape (Brassica napus), pigweed (redroot pigweed, Amaranthus retroflexus), chamomile (scentless chamomile, Matricaria inodora), speedwell (bird's-eye speedwell, Veronica persica), barley, spring (spring barley, Hordeum vulgare), wheat, spring (spring wheat, Triticum aestivum), buckwheat, wild (wild buckwheat, Polygonum convolvulus), mustard, wild (wild mustard, Sinapis arvensis), oat, wild (wild oat, Avena fatua), radish, wild (wild radish, Raphanus raphanistrum), windgrass (Apera spica-venti), Russian thistle (Salsola kali), barley, winter (winter barley, Hordeum vulgare), and wheat, winter (winter wheat, Triticum aestivum) were planted into a silt loam soil and treated preemergence with test chemicals formulated in a non-phytotoxic solvent mixture which included a surfactant.
(§2) At the same time, these species were planted in pots containing Redi-Earth® planting medium (Scotts Company, 14111 Scottslawn Road, Marysville, Ohio 43041) comprising spaghnum peat moss, vermiculite, wetting agent and starter nutrients and treated with postemergence applications of the test chemicals formulated in the same manner. Plants ranged in height from 2 to 18 cm (1- to 4-leaf stage). Treated plants and controls were maintained in a controlled growth environment for 14 to 21 days after which time all species were compared to controls and visually evaluated. Plant response ratings, summarized in Table D, are based on a scale of 0 to 100 where 0 is no effect and 100 is complete control. A dash (-) response means no test result.

barley, spring = test: Test D preemergence; assay type: in vivo, Hordeum vulgare
From the text: as §1, §2

barley, winter = test: Test D preemergence; assay type: in vivo, Hordeum vulgare
From the text: as §1, §2

buckwheat, wild = test: Test D preemergence; assay type: in vivo, Polygonum convolvulus
From the text: as §1, §2

chickweed = test: Test D postemergence; assay type: in vivo, Stellaria media
From the text: as §1, §2

bromegrass, downy = test: Test D postemergence; assay type: in vivo, Bromus tectorum
From the text: as §1, §2

field poppy = test: Test D postemergence; assay type: in vivo, Papaver rhoeas
From the text: as §1, §2

wheat, spring = test: Test D postemergence; assay type: in vivo, Triticum aestivum
From the text: as §1, §2

wheat, winter = test: Test D postemergence; assay type: in vivo, Triticum aestivum
From the text: as §1, §2

mustard, wild = test: Test D postemergence; assay type: in vivo, Sinapis arvensis
From the text: as §1, §2

oat, wild = test: Test D postemergence; assay type: in vivo, Avena fatua
From the text: as §1, §2

CCc1cc(C(=O)NC(C)C)nn1Cc1ccnc(C(F)(F)F)c1 [Compound 103]
Plant response rating, Galium (galium; 31 g ai/ha): 50
Plant response rating, Galium (galium; 62 g ai/ha): 100
Plant response rating, Galium (galium; 125 g ai/ha): 100
Plant response rating, Galium (galium; 250 g ai/ha): 100
Plant response rating, Barley, Spring (barley, spring; 31 g ai/ha): 15
Plant response rating, Barley, Spring (barley, spring; 62 g ai/ha): 35
Plant response rating, Barley, Spring (barley, spring; 125 g ai/ha): 80
Plant response rating, Barley, Spring (barley, spring; 250 g ai/ha): 100
Plant response rating, Barley, Winter (barley, winter; 31 g ai/ha): 0
Plant response rating, Barley, Winter (barley, winter; 62 g ai/ha): 35
Plant response rating, Barley, Winter (barley, winter; 125 g ai/ha): 60
Plant response rating, Barley, Winter (barley, winter; 250 g ai/ha): 85
Plant response rating, Buckwheat, Wild (buckwheat, wild; 31 g ai/ha): 75
Plant response rating, Buckwheat, Wild (buckwheat, wild; 62 g ai/ha): 100
Plant response rating, Buckwheat, Wild (buckwheat, wild; 125 g ai/ha): 100
Plant response rating, Buckwheat, Wild (buckwheat, wild; 250 g ai/ha): 100
Chickweed plant response rating (chickweed; Postemergence, 31 g ai/ha): 20
Chickweed plant response rating (chickweed; Postemergence, 125 g ai/ha): 40
Chickweed plant response rating (chickweed; Postemergence, 250 g ai/ha): 70
Chickweed plant response rating (chickweed; postemergence, 62 g ai/ha): 25
Bromegrass, Downy plant response rating (bromegrass, downy; Postemergence, 31 g ai/ha): 5
Bromegrass, Downy plant response rating (bromegrass, downy; Postemergence, 125 g ai/ha): 15
Bromegrass, Downy plant response rating (bromegrass, downy; Postemergence, 250 g ai/ha): 15
Bromegrass, Downy plant response rating (bromegrass, downy; postemergence, 62 g ai/ha): 10
Field Poppy plant response rating (field poppy; Postemergence, 31 g ai/ha): 40
Field Poppy plant response rating (field poppy; Postemergence, 125 g ai/ha): 60
Field Poppy plant response rating (field poppy; Postemergence, 250 g ai/ha): 70
Field Poppy plant response rating (field poppy; postemergence, 62 g ai/ha): 55
Wheat, Spring plant response rating (wheat, spring; Postemergence, 31 g ai/ha): 0
Wheat, Spring plant response rating (wheat, spring; Postemergence, 125 g ai/ha): 0
Wheat, Spring plant response rating (wheat, spring; Postemergence, 250 g ai/ha): 5
Wheat, Spring plant response rating (wheat, spring; postemergence, 62 g ai/ha): 0
Wheat, Winter plant response rating (wheat, winter; Postemergence, 31 g ai/ha): 0
Wheat, Winter plant response rating (wheat, winter; Postemergence, 125 g ai/ha): 10
Wheat, Winter plant response rating (wheat, winter; Postemergence, 250 g ai/ha): 30
Wheat, Winter plant response rating (wheat, winter; postemergence, 62 g ai/ha): 5
Mustard, Wild plant response rating (mustard, wild; Postemergence, 31 g ai/ha): 25
Mustard, Wild plant response rating (mustard, wild; Postemergence, 125 g ai/ha): 60
Mustard, Wild plant response rating (mustard, wild; Postemergence, 250 g ai/ha): 60
Mustard, Wild plant response rating (mustard, wild; postemergence, 62 g ai/ha): 45
Oat, Wild plant response rating (oat, wild; Postemergence, 31 g ai/ha): 10
Oat, Wild plant response rating (oat, wild; Postemergence, 125 g ai/ha): 20
Oat, Wild plant response rating (oat, wild; Postemergence, 250 g ai/ha): 25
Oat, Wild plant response rating (oat, wild; postemergence, 62 g ai/ha): 15

CCCc1cc(C(=O)NCC(F)(F)F)nn1Cc1cc(C(F)(F)F)nn1C [Compound 138]
Plant response rating, Galium (galium; 62 g ai/ha): 100
Plant response rating, Galium (galium; 125 g ai/ha): 100
Plant response rating, Galium (galium; 250 g ai/ha): 100
Plant response rating, Barley, Spring (barley, spring; 31 g ai/ha): 0
Plant response rating, Barley, Spring (barley, spring; 62 g ai/ha): 5
Plant response rating, Barley, Spring (barley, spring; 125 g ai/ha): 40
Plant response rating, Barley, Spring (barley, spring; 250 g ai/ha): 75
Plant response rating, Barley, Winter (barley, winter; 31 g ai/ha): 5
Plant response rating, Barley, Winter (barley, winter; 62 g ai/ha): 35
Plant response rating, Barley, Winter (barley, winter; 125 g ai/ha): 60
Plant response rating, Barley, Winter (barley, winter; 250 g ai/ha): 70
Plant response rating, Buckwheat, Wild (buckwheat, wild; 31 g ai/ha): 45
Plant response rating, Buckwheat, Wild (buckwheat, wild; 62 g ai/ha): 50
Plant response rating, Buckwheat, Wild (buckwheat, wild; 125 g ai/ha): 70
Plant response rating, Buckwheat, Wild (buckwheat, wild; 250 g ai/ha): 100
Chickweed plant response rating (chickweed; Postemergence, 31 g ai/ha): 70
Chickweed plant response rating (chickweed; Postemergence, 125 g ai/ha): 80
Chickweed plant response rating (chickweed; Postemergence, 250 g ai/ha): 75
Chickweed plant response rating (chickweed; postemergence, 62 g ai/ha): 70
Bromegrass, Downy plant response rating (bromegrass, downy; Postemergence, 31 g ai/ha): 10
Bromegrass, Downy plant response rating (bromegrass, downy; Postemergence, 125 g ai/ha): 30
Bromegrass, Downy plant response rating (bromegrass, downy; Postemergence, 250 g ai/ha): 20
Bromegrass, Downy plant response rating (bromegrass, downy; postemergence, 62 g ai/ha): 10
Field Poppy plant response rating (field poppy; Postemergence, 31 g ai/ha): 55
Field Poppy plant response rating (field poppy; Postemergence, 125 g ai/ha): 65
Field Poppy plant response rating (field poppy; Postemergence, 250 g ai/ha): 75
Field Poppy plant response rating (field poppy; postemergence, 62 g ai/ha): 55
Wheat, Spring plant response rating (wheat, spring; Postemergence, 31 g ai/ha): 15
Wheat, Spring plant response rating (wheat, spring; Postemergence, 125 g ai/ha): 15
Wheat, Spring plant response rating (wheat, spring; Postemergence, 250 g ai/ha): 25
Wheat, Spring plant response rating (wheat, spring; postemergence, 62 g ai/ha): 15
Wheat, Winter plant response rating (wheat, winter; Postemergence, 31 g ai/ha): 15
Wheat, Winter plant response rating (wheat, winter; Postemergence, 125 g ai/ha): 20
Wheat, Winter plant response rating (wheat, winter; Postemergence, 250 g ai/ha): 35
Wheat, Winter plant response rating (wheat, winter; postemergence, 62 g ai/ha): 15
Mustard, Wild plant response rating (mustard, wild; Postemergence, 31 g ai/ha): 100
Mustard, Wild plant response rating (mustard, wild; Postemergence, 125 g ai/ha): 100
Mustard, Wild plant response rating (mustard, wild; Postemergence, 250 g ai/ha): 100
Mustard, Wild plant response rating (mustard, wild; postemergence, 62 g ai/ha): 100
Oat, Wild plant response rating (oat, wild; Postemergence, 31 g ai/ha): 20
Oat, Wild plant response rating (oat, wild; Postemergence, 125 g ai/ha): 25
Oat, Wild plant response rating (oat, wild; Postemergence, 250 g ai/ha): 60
Oat, Wild plant response rating (oat, wild; postemergence, 62 g ai/ha): 20

CCOc1cc(C(=O)NC2CC2)nn1Cc1ccnc(C(F)(F)F)c1 [Compound 189]
Plant response rating, Galium (galium; 62 g ai/ha): 75
Plant response rating, Galium (galium; 125 g ai/ha): 70
Plant response rating, Galium (galium; 250 g ai/ha): 100
Plant response rating, Barley, Spring (barley, spring; 31 g ai/ha): 0
Plant response rating, Barley, Spring (barley, spring; 62 g ai/ha): 40
Plant response rating, Barley, Spring (barley, spring; 125 g ai/ha): 70
Plant response rating, Barley, Spring (barley, spring; 250 g ai/ha): 85
Plant response rating, Barley, Winter (barley, winter; 31 g ai/ha): 10
Plant response rating, Barley, Winter (barley, winter; 62 g ai/ha): 35
Plant response rating, Barley, Winter (barley, winter; 125 g ai/ha): 60
Plant response rating, Barley, Winter (barley, winter; 250 g ai/ha): 65
Plant response rating, Buckwheat, Wild (buckwheat, wild; 31 g ai/ha): 100
Plant response rating, Buckwheat, Wild (buckwheat, wild; 62 g ai/ha): 100
Plant response rating, Buckwheat, Wild (buckwheat, wild; 125 g ai/ha): 100
Plant response rating, Buckwheat, Wild (buckwheat, wild; 250 g ai/ha): 100
Chickweed plant response rating (chickweed; Postemergence, 31 g ai/ha): 75
Chickweed plant response rating (chickweed; Postemergence, 125 g ai/ha): 70
Chickweed plant response rating (chickweed; Postemergence, 250 g ai/ha): 85
Chickweed plant response rating (chickweed; postemergence, 62 g ai/ha): 75
Bromegrass, Downy plant response rating (bromegrass, downy; Postemergence, 31 g ai/ha): 15
Bromegrass, Downy plant response rating (bromegrass, downy; Postemergence, 125 g ai/ha): 15
Bromegrass, Downy plant response rating (bromegrass, downy; Postemergence, 250 g ai/ha): 20
Bromegrass, Downy plant response rating (bromegrass, downy; postemergence, 62 g ai/ha): 15
Field Poppy plant response rating (field poppy; Postemergence, 31 g ai/ha): 55
Field Poppy plant response rating (field poppy; Postemergence, 125 g ai/ha): 75
Field Poppy plant response rating (field poppy; Postemergence, 250 g ai/ha): 75
Field Poppy plant response rating (field poppy; postemergence, 62 g ai/ha): 55
Wheat, Spring plant response rating (wheat, spring; Postemergence, 31 g ai/ha): 0
Wheat, Spring plant response rating (wheat, spring; Postemergence, 125 g ai/ha): 5
Wheat, Spring plant response rating (wheat, spring; Postemergence, 250 g ai/ha): 25
Wheat, Spring plant response rating (wheat, spring; postemergence, 62 g ai/ha): 0
Wheat, Winter plant response rating (wheat, winter; Postemergence, 31 g ai/ha): 20
Wheat, Winter plant response rating (wheat, winter; Postemergence, 125 g ai/ha): 25
Wheat, Winter plant response rating (wheat, winter; Postemergence, 250 g ai/ha): 50
Wheat, Winter plant response rating (wheat, winter; postemergence, 62 g ai/ha): 20
Mustard, Wild plant response rating (mustard, wild; Postemergence, 31 g ai/ha): 40
Mustard, Wild plant response rating (mustard, wild; Postemergence, 125 g ai/ha): 40
Mustard, Wild plant response rating (mustard, wild; Postemergence, 250 g ai/ha): 80
Mustard, Wild plant response rating (mustard, wild; postemergence, 62 g ai/ha): 40
Oat, Wild plant response rating (oat, wild; Postemergence, 31 g ai/ha): 20
Oat, Wild plant response rating (oat, wild; Postemergence, 125 g ai/ha): 30
Oat, Wild plant response rating (oat, wild; Postemergence, 250 g ai/ha): 35
Oat, Wild plant response rating (oat, wild; postemergence, 62 g ai/ha): 20
